# Reference: ChEMBL document CHEMBL1152560, “Substituted 2-arylbenzothiazoles as kinase inhibitors: hit-to-lead optimization” (Bioorg Med Chem, 2009)
# How the values were obtained:
# [1] = molecular target: Death-associated protein kinase 1 (Homo sapiens) (UniProt P53355); experiment: Residual activity of DAPK1 at 0.1 uM by microplate scintillation counting
# [2] = molecular target: T1, Inhibitor of nuclear factor kappa-B kinase subunit alpha (Homo sapiens) (UniProt O15111); experiment: Residual activity of IKKalpha at 1 uM by microplate scintillation counting
# T1 sequence (whole entry): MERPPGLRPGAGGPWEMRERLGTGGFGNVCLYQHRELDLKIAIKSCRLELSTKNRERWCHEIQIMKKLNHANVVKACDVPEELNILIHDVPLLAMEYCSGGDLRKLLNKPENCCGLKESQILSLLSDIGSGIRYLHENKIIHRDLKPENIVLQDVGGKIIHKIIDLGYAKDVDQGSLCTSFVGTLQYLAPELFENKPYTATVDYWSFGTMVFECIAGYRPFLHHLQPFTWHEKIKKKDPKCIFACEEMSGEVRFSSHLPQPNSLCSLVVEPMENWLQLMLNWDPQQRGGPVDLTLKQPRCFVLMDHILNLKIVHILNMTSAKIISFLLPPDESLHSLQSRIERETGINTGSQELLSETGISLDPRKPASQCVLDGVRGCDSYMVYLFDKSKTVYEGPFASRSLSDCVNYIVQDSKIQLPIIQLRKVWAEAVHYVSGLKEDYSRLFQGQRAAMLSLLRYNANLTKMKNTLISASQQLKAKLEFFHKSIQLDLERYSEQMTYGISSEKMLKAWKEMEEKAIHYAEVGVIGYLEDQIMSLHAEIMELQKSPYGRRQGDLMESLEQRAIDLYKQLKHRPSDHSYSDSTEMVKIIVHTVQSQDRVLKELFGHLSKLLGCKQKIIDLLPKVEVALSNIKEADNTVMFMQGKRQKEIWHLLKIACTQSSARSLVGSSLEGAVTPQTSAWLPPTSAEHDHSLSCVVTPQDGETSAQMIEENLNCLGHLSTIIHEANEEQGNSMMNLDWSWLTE
# [3] = molecular target: T2, Dual specificity protein kinase TTK (Homo sapiens) (UniProt P33981); experiment: Residual activity of TTK at 1 uM by microplate scintillation counting
# T2 sequence (whole entry): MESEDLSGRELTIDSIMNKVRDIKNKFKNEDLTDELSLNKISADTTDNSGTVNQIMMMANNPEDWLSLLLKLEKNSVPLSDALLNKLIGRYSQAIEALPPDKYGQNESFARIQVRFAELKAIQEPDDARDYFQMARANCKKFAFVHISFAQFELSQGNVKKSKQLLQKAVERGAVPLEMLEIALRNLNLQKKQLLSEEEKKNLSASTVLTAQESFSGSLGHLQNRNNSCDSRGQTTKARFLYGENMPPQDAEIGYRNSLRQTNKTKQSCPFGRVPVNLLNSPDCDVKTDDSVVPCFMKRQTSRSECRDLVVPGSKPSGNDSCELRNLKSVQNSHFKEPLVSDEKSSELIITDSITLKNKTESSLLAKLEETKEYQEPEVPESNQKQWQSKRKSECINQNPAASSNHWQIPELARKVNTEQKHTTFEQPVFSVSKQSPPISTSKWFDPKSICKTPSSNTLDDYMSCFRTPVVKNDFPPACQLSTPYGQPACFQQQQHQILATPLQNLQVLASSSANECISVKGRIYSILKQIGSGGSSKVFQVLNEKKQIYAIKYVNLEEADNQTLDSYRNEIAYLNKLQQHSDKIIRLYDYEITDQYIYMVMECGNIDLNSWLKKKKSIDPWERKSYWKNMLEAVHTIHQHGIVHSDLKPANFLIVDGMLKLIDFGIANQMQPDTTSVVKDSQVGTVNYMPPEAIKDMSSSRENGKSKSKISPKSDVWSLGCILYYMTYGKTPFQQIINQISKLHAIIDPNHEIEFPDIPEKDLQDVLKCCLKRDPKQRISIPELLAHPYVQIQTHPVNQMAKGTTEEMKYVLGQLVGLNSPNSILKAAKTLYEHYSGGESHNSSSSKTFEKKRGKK
# [4] = molecular target: CDK8/Cyclin C (Homo sapiens) (UniProt P49336+P24863); experiment: Residual activity of CDK8/Cyclin C at 10 uM by microplate scintillation counting; assay type: protein-complex assay
# [5] = molecular target: T3, Activin receptor type-1B (Homo sapiens) (UniProt P36896); experiment: Residual activity of ACVR1B at 10 uM by microplate scintillation counting
# T3 sequence (whole entry): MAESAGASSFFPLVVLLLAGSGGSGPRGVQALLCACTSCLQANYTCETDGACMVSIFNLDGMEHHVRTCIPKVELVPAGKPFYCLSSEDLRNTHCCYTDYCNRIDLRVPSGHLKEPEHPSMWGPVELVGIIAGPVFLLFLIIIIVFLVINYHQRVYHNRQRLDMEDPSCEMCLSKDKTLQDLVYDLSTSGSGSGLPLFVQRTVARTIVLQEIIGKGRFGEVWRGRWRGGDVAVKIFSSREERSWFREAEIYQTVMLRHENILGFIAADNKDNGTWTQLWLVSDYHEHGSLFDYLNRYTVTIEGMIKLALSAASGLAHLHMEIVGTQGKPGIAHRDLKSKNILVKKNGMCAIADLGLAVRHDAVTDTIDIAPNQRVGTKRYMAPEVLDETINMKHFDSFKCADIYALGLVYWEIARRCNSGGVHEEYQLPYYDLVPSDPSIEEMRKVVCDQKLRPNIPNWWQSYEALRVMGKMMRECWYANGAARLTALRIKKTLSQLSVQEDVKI
# [6] = molecular target: 5'-AMP-activated protein kinase catalytic subunit alpha-1 (Homo sapiens) (UniProt Q13131); experiment: Residual activity of AMPK-alpha1 fl at 10 uM by microplate scintillation counting
# [7] = molecular target: Rho-associated protein kinase 1 (Homo sapiens) (UniProt Q13464); experiment: Residual activity of ROCK1 at 10 uM by microplate scintillation counting
# Rho-associated protein kinase 1 (Homo sapiens), sequence (Q13464 2-1354 limits assumed): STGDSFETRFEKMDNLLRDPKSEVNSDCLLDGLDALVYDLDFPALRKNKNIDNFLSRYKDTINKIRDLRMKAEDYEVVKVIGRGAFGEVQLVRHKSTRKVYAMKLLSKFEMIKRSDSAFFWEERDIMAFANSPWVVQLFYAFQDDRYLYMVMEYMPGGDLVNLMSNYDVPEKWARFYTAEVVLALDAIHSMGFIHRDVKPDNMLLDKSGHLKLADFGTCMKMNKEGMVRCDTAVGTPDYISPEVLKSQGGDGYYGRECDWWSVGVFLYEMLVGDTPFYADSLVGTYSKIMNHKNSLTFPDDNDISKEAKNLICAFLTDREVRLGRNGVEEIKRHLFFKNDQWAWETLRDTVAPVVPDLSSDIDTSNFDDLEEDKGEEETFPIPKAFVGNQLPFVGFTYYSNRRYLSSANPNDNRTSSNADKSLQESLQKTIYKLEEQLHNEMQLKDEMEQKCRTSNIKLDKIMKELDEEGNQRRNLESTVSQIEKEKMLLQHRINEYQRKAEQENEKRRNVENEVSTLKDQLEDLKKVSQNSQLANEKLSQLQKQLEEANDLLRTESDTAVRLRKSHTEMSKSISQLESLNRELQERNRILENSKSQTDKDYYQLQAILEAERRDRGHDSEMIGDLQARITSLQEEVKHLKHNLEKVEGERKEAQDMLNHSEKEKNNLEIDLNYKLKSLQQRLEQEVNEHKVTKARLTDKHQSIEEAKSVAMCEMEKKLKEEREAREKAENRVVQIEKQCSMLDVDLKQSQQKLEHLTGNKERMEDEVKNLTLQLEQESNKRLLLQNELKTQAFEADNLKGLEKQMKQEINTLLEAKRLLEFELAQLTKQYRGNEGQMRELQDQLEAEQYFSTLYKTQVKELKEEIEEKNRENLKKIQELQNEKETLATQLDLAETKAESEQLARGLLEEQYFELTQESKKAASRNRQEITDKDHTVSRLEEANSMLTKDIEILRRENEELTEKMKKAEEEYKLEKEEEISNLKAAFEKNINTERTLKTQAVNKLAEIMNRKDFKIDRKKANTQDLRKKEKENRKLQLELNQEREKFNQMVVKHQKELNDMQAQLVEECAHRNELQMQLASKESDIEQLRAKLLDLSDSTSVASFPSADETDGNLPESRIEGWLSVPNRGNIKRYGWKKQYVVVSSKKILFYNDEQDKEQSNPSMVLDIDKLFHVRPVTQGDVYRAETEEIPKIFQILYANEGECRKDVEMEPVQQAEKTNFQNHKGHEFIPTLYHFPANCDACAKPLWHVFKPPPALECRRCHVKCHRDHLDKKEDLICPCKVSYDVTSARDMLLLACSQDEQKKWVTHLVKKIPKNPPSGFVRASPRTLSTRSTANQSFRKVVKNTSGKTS
# Death-associated protein kinase 1 (Homo sapiens), sequence (P53355 whole entry, looked up): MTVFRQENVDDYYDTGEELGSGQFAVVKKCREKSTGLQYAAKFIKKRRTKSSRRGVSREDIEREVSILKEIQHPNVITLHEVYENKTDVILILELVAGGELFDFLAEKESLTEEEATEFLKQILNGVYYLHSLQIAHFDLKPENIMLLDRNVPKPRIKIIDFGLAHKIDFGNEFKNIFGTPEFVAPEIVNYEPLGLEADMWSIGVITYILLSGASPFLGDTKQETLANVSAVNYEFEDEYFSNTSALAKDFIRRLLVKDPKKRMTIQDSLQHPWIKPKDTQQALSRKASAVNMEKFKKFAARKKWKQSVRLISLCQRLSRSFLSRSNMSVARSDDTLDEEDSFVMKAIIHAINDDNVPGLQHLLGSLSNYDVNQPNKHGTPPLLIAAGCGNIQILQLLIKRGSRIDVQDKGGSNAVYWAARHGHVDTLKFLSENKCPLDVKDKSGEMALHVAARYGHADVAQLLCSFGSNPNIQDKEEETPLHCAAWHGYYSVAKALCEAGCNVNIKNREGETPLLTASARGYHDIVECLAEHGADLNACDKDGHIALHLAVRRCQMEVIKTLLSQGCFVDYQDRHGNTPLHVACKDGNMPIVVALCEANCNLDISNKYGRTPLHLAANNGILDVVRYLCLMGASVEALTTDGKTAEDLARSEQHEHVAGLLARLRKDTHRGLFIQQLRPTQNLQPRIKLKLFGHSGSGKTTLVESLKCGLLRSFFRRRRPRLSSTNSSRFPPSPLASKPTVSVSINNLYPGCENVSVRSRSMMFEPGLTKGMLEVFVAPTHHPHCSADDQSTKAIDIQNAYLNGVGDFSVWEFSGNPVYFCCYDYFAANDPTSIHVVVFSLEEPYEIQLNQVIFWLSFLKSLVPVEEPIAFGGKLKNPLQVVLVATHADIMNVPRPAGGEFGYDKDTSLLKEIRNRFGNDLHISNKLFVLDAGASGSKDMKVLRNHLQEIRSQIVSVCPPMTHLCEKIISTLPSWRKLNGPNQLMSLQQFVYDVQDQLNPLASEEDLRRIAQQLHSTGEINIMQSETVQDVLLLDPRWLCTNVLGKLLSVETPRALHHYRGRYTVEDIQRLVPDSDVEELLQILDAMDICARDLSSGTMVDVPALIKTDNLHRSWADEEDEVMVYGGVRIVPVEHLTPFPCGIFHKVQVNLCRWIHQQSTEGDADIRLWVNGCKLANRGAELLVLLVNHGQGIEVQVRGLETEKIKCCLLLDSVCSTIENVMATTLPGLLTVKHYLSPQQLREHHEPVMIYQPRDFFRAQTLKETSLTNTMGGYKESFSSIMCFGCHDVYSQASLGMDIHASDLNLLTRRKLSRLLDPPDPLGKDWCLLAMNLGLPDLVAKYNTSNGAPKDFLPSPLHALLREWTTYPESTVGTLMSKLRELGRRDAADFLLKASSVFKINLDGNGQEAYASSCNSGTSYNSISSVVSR
# 5'-AMP-activated protein kinase catalytic subunit alpha-1 (Homo sapiens), sequence (Q13131 whole entry, looked up): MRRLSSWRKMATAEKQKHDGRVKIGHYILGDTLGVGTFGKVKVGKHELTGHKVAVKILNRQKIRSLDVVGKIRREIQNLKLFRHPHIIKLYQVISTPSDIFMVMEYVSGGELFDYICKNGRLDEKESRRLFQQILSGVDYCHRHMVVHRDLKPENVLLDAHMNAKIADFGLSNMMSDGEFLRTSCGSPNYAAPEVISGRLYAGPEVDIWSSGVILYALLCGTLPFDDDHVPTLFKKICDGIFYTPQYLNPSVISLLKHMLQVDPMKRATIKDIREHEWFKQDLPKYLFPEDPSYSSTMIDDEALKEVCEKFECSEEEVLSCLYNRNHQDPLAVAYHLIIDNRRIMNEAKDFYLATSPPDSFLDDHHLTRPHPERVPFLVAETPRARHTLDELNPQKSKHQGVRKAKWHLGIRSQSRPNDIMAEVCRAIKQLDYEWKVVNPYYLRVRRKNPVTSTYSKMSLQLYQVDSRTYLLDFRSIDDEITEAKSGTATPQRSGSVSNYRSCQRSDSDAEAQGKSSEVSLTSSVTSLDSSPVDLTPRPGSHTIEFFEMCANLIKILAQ
residual activity [2] [%],residual activity [3] [%],residual activity [4] [%],residual activity [5] [%],residual activity [6] [%],residual activity [7] [%],Structure (SMILES),residual activity [1] [%]
95,85,82,104,73,81,COc1cc2c(Oc3ccc(-c4nc5ccccc5s4)cc3)ncnc2cc1OCCCN1CCCC1,86
98,101,88,93,61,68,COc1cc2c(Oc3ccc(-c4nc5ccccc5s4)cc3)ncnc2cc1OCCCN1CCN(C)CC1,73
99,105,75,109,57,73,COc1cc2c(Oc3ccc(-c4nc5ccccc5s4)cc3F)ncnc2cc1OCCCN1CCN(C)CC1,80
